One assay deals with DNA gyrase (Escherichia coli, UniProt P0AES4+P0AES6). The experiment in a line: Inhibition of Escherichia coli DNA gyrase assessed as supercoiling activity by fluorescence assay relative to control. It counts as protein-complex assay.
Another assay has as its system DNA. In words: Displacement of thiazole orange from DNA (unknown origin) by fluorescence assay. Format: nucleic-acid assay.
In assay [1] the target is T1, DNA gyrase (Escherichia coli) (UniProt P0AES6+P0AES4). In words: Poison activity at Escherichia coli DNA gyrase assessed as stabilization of DNA cleavage complex by measuring linear plasmid DNA formation relative to control. Format: protein-complex assay.
The species named for the next assay is Bos taurus. In words: Binding affinity to calf thymus DNA by fluorescence-based DNA binding assay.
Assay [2] concerns the target T1, DNA gyrase (Escherichia coli). The experiment in a line: Inhibition of Escherichia coli DNA gyrase super-coiling activity at 25uM. Format: protein-complex assay.
Assay [3] shares this target. The experiment in a line: Inhibition of Escherichia coli DNA gyrase super-coiling activity at 50 uM. Format: protein-complex assay.

The results in this text go back to ChEMBL document CHEMBL4622836, “Identification of an ethyl 5,6-dihydropyrazolo[1,5-c]quinazoline-1-carboxylate as a catalytic inhibitor of DNA gyrase” (Bioorg Med Chem, 2020).

Structures are written as SMILES. pIC50: −log10 of the molar value. Calls of active or inactive are those of the source. No cut-off for these calls is given here.

Broadly, the pIC50 is −log10 of the IC50, conventionally taken in molar units.

For the compound `COc1c(N2CC[C@@H](CN)C2)c(F)cc2c(=O)n(CCNC(=N)N)c(=O)n(C3CC3)c12`, the pIC50 at DNA gyrase was less than 4.30.

For the compound `CCn1c(=O)n2nc(C(=O)O)cc2c2cc(F)c(N3CC[C@@H](CN)C3)cc21`, at DNA gyrase, the pIC50 is less than 4.30.

On to `CCOC(=O)c1cnn2c(=O)n(CC)c3cc(N4CC[C@@H](CN)C4)c(F)cc3c12`, for which the outcome (in the assay with DNA; in assay [1]; in the assay filed under Bos taurus) was inactive. For the same compound, at DNA gyrase, the pIC50 was 5.46. Moreover, the inhibition entry in assay [2] and in assay [3] was “Active” throughout.

Consider `Cc1c(N2CC[C@@H](CN)C2)c(F)cc2c(=O)n(CCN)c(=O)n(C3CC3)c12`, for which the result in assay [1] was Active. Also, on DNA gyrase, the pIC50 is 4.75. The inhibition entry in assay [2] and in assay [3] was “Active” throughout.

As to `Cc1c(N2CC[C@@H](CN)C2)c(F)cc2c(=O)n(CCNC(=N)N)c(=O)n(C3CC3)c12`, the result in assay [1] was Active. In addition, the pIC50 on DNA gyrase was 4.94. The inhibition result in assay [2] and in assay [3] was “Active” throughout.

As to `NCCn1c(=O)c2cc(F)c(N3CC[C@@H](CN)C3)cc2n(C2CC2)c1=O`, the pIC50 at DNA gyrase is less than 4.30.

For the compound `N=C(N)NCCn1c(=O)c2cc(F)c(N3CC[C@@H](CN)C3)cc2n(C2CC2)c1=O`, the pIC50 at DNA gyrase is less than 4.30.

With `CCOC(=O)c1cc2c3cc(F)c(N4CC[C@@H](CN)C4)cc3n(CC)c(=O)n2n1`, on DNA gyrase, the pIC50 was less than 4.30.

Consider `COc1c(N2CC[C@@H](CN)C2)c(F)cc2c(=O)c(C(=O)O)cn(C3CC3)c12`, for which the outcome in assay [1] was Active. Moreover, the pIC50 on DNA gyrase was 6.92.

In the case of `COc1c(N2CC[C@@H](CN)C2)c(F)cc2c(=O)n(CCN)c(=O)n(C3CC3)c12`, the pIC50 at DNA gyrase was less than 4.30.

For the compound `Cc1c(N2CC[C@@H](CN)C2)c(F)cc2c(=O)n(N)c(=O)n(C3CC3)c12`, in assay [1], the result was Active. Further, the negative logarithm of the IC50 (pIC50) at DNA gyrase was 6.02.
